Columns and labels:
YES1 kinase = YES1 kinase (Homo sapiens, UniProt P07947); test: YES1 kinase inhibition, ADP Glo assay (Promega); assay type: biochemical; details: for inhibition at 0.01 µM: compound 10 nM, read-out: YES1 enzyme, % inhibition, 10 nM; for inhibition at 0.1 µM: compound 100 nM, read-out: YES1 enzyme, % inhibition, 100 nM; for IC50: class symbols, read-out: YES1 enzyme, IC50; for YES1 kinase inhibition at 1 nM (in words) / inhibition at 0.001 µM: compound 1 nM; for inhibition at 0.001 µM: read-out: YES1 enzyme, % inhibition, 1 nM
Procedure, shortened: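 YES1 kinase was preincubated 10 min with compound in Mn2+/DTT-containing kinase buffer, then reacted 40 min at room temperature with ATP/substrate; ADP was detected by ADP-Glo luminescence. Activity, background-subtracted and normalised to negative control, is given as % inhibition at 1, 10 and 100 nM, plus IC50.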

[1] = system: KYSE-70 esophageal cancer cell line; test: Cell growth inhibition of KYSE-70 (Sulforhodamine B); assay type: cell-based; details: Homo sapiens; KYSE-70, 72 hours; read-out: KYSE70 GI50
Procedure, shortened: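 KYSE-70 cells (YES1-amplified) in RPMI-1640 with 10% FBS were seeded 24 h before treatment with compound at 0.0046–10 µM final. After 72 h, cells were TCA-fixed and stained with sulforhodamine B, with absorbance read at 510 nm. GI50 was derived with a time-zero plate set to 0% and the vehicle control to 100%, in duplicate tests.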

YES1 kinase, sequence (P07947 whole entry): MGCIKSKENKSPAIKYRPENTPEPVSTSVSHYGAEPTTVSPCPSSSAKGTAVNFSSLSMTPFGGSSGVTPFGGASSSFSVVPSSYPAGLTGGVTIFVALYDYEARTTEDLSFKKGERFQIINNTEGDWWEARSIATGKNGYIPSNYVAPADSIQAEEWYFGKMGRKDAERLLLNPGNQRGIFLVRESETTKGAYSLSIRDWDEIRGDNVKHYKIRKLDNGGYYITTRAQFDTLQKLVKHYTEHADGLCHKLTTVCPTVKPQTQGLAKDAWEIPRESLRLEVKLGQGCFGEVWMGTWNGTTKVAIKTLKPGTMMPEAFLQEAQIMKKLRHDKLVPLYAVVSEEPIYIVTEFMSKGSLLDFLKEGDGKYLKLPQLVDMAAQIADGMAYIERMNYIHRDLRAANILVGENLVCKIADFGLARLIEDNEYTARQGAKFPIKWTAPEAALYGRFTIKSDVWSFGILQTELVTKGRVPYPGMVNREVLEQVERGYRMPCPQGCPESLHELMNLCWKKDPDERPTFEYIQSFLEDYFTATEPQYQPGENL

| Compound | inhibition at 0.01 µM (YES1 kinase) [%] | inhibition at 0.1 µM (YES1 kinase) [%] | GI50 [1] [nM] | IC50 (YES1 kinase) [nM] | inhibition at 0.001 µM (YES1 kinase) [%] | YES1 kinase inhibition at 1 nM (in words) (YES1 kinase) |
| --- | --- | --- | --- | --- | --- | --- |
| COc1cc(-c2cc(N3CCC4(CC3)CC(=O)N(C)C4)n3ncnc(N)c23)ccc1NC(=O)OC(C)(C)C [Example 27, tert-butyl (4-(4-amino-7-(2-methyl-3-oxo-2,8-diazaspiro[4.5]decan-8-yl)pyrrolo[2,1-f][1,2,4]triazin-5-yl)-2-methoxyphenyl)carbamate] | 59 | 74 | 1000 to 10000 | – | – | – |
| COc1cc(-c2cc(NCC3CCNCC3)n3ncnc(N)c23)ccc1NC(=O)OC(C)(C)C [Example 117, tert-butyl (4-(4-amino-7-((piperidin-4-ylmethyl)amino)pyrrolo[2,1-f][1,2,4]triazin-5-yl)-2-methoxyphenyl)carbamate] | 39 | 64 | 100 to 1000 | – | – | – |
| COc1cc(-c2cc(N3CCC(CC(=O)O)CC3)n3ncnc(N)c23)ccc1NC(=O)OC(C)(C)C [Example 101, 2-(1-(4-amino-5-(4-((tert-butoxycarbonyl)amino)-3-methoxyphenyl)pyrrolo[2,1-f][1,2,4]triazin-7-yl)piperidin-4-yl)acetic Acid] | 40 | – | > 10000 | – | 16 | could be inhibited even at a low concentration of 1 nM |
| COc1cc(-c2cc(-c3ccc4c(c3)OCC(=O)N4C)n3ncnc(N)c23)ccc1NC(=O)OC(C)(C)C [Example 8, tert-butyl (4-(4-amino-7-(4-methyl-3-oxo-3,4-dihydro-2H-benzo[b][1,4]oxazin-7-yl)pyrrolo[2,1-f][1,2,4]triazin-5-yl)-2-methoxyphenyl)carbamate] | 33 | 64 | > 10000 | – | – | – |
| COc1cc(-c2cc(N3CCC4(CC3)CN(C)C4)n3ncnc(N)c23)ccc1NC(=O)OC(C)(C)C [Example 21, tert-butyl (4-(4-amino-7-(2-methyl-2,7-diazaspiro[3.5]nonan-7-yl)pyrrolo[2,1-f][1,2,4]triazin-5-yl)-2-methoxyphenyl)carbamate] | 67 | 92 | 100 to 1000 | – | – | – |
| COc1cc(-c2cc(N3CCC(NC(C)=O)CC3)n3ncnc(N)c23)ccc1NC(=O)OC(C)(C)C [Example 103, tert-butyl (4-(7-(4-acetamidopiperidin-1-yl)-4-aminopyrrolo[2,1-f][1,2,4]triazin-5-yl)-2-methoxyphenyl)carbamate] | 27 | 66 | 100 to 1000 | – | – | – |
| COc1cc(-c2cc(N3CCC(C(=O)O)CC3)n3ncnc(N)c23)ccc1NC(=O)OC(C)(C)C [Example 89, 1-(4-amino-5-(4-((tert-butoxycarbonyl)amino)-3-methoxyphenyl)pyrrolo[2,1-f][1,2,4]triazin-7-yl)piperidine-4-carboxylic acid] | 34 | – | > 10000 | – | 19 | could be inhibited even at a low concentration of 1 nM |
| COc1cc(-c2cc(-c3ccc(N(C)C)c(C)c3)n3ncnc(N)c23)ccc1NC(=O)OC(C)(C)C [Example 3, tert-butyl (4-(4-amino-7-(4-(dimethylamino)-3-methylphenyl)pyrrolo[2,1-f][1,2,4]triazin-5-yl)-2-methoxyphenyl)carbamate] | 44 | 49 | > 10000 | – | – | – |
| COc1cc(-c2cc(N3CCC(CO)CC3)n3ncnc(N)c23)ccc1NC(=O)OC(C)(C)C [Example 102, tert-butyl (4-(4-amino-7-(4-(hydroxymethyl)piperidin-1-yl)pyrrolo[2,1-f][1,2,4]triazin-5-yl)-2-methoxyphenyl)carbamate] | 39 | – | 100 to 1000 | – | 11 | could be inhibited even at a low concentration of 1 nM |

Now from value to molecule, other results behind:

| inhibition at 0.01 µM (YES1 kinase) [%] | inhibition at 0.1 µM (YES1 kinase) [%] | GI50 [1] [nM] | IC50 (YES1 kinase) [nM] | inhibition at 0.001 µM (YES1 kinase) [%] | Compound | YES1 kinase inhibition at 1 nM (in words) (YES1 kinase) |
| --- | --- | --- | --- | --- | --- | --- |
| 36 | 78 | 100 to 1000 | – | – | COc1cc(-c2cc(N3CCC4(CCN(C)CC4)C3)n3ncnc(N)c23)ccc1NC(=O)OC(C)(C)C [Example 36, tert-butyl (4-(4-amino-7-(8-methyl-2,8-diazaspiro[4.5]decan-2-yl)pyrrolo[2,1-f][1,2,4]triazin-5-yl)-2-methoxyphenyl)carbamate] | – |
| 14 | 48 | 100 to 1000 | – | – | COc1cc(-c2cc(N3CC4CC(C3)C4N)n3ncnc(N)c23)ccc1NC(=O)OC(C)(C)C (centres unmarked) [Example 93, tert-butyl (4-(4-amino-7-(6-amino-3-azabicyclo[3.1.1]heptan-3-yl)pyrrolo[2,1-f][1,2,4]triazin-5-yl)-2-methoxyphenyl)carbamate] | – |
| 66 | 81 | 100 to 1000 | ≤ 100 | – | CCNC1CCN(c2cc(-c3ccc(NC(=O)OC(C)(C)C)c(OC)c3)c3c(N)ncnn23)CC1 [Example 92, tert-butyl (4-(4-amino-7-(4-(ethylamino)piperidin-1-yl)pyrrolo[2,1-f][1,2,4]triazin-5-yl)-2-methoxyphenyl)carbamate] | – |
| 24 | – | 100 to 1000 | – | 14 | COc1cc(-c2cc(N3CCC(N)(C(F)(F)F)CC3)n3ncnc(N)c23)ccc1NC(=O)OC(C)(C)C [Example 83, tert-butyl (4-(4-amino-7-(4-amino-4-(trifluoromethyl)piperidin-1-yl)pyrrolo[2,1-f][1,2,4]triazin-5-yl)-2-methoxyphenyl)carbamate] | could be inhibited even at a low concentration of 1 nM |
| 29 | 60 | ≤ 100 | – | – | COc1cc(-c2cc(N3CCC4(CCNC4=O)CC3)n3ncnc(N)c23)ccc1NC(=O)OC(C)(C)C [Example 53, tert-butyl (4-(4-amino-7-(1-oxo-2,8-diazaspiro[4.5]decan-8-yl)pyrrolo[2,1-f][1,2,4]triazin-5-yl)-2-methoxyphenyl)carbamate] | – |
| 21 | 44 | 100 to 1000 | – | – | COc1cc(-c2cc(N3CC[C@H](N(C)C)C3)n3ncnc(N)c23)ccc1NC(=O)OC(C)(C)C [Example 11, tert-butyl (S)-(4-(4-amino-7-(3-(dimethylamino)pyrrolidin-1-yl)pyrrolo[2,1-f][1,2,4]triazin-5-yl)-2-methoxyphenyl)carbamate] | – |
| 70 | 92 | ≤ 100 | ≤ 100 | – | CNC1CCN(c2c(F)c(-c3ccc(NC(=O)OC(C)(C)C)c(OC)c3)c3c(N)ncnn23)CC1 [Example 129, tert-butyl (4-(4-amino-6-fluoro-7-(4-(methylamino)piperidin-1-yl)pyrrolo[2,1-f][1,2,4]triazin-5-yl)-2-methoxyphenyl)carbamate] | – |
| 70 | 96 | ≤ 100 | – | – | COc1cc(-c2cc(N3CCC(N)C(C)C3)n3ncnc(N)c23)ccc1NC(=O)OC(C)(C)C (centres unmarked) [Example 48, tert-butyl (4-(4-amino-7-(4-amino-3-methylpiperidin-1-yl)pyrrolo[2,1-f][1,2,4]triazin-5-yl)-2-methoxyphenyl)carbamate] | – |
| 64 | 90 | ≤ 100 | – | – | CN(C)C1CCN(c2cc(-c3ccc(Oc4ccccc4)cc3)c3c(N)ncnn23)CC1 [Example 136, 7-(4-(dimethylamino)piperidin-1-yl)-5-(4-phenoxyphenyl)pyrrolo[2,1-f][1,2,4]triazin-4-amine] | – |
| 23 | 68 | ≤ 100 | ≤ 100 | – | COc1cc(-c2cc(N3CCC4(CC3)CC(=O)N4)n3ncnc(N)c23)ccc1NC(=O)OC(C)(C)C [Example 56, tert-butyl (4-(4-amino-7-(2-oxo-1,7-diazaspiro[3.5]nonan-7-yl)pyrrolo[2,1-f][1,2,4]triazin-5-yl)-2-methoxyphenyl)carbamate] | – |
| 58 | 87 | ≤ 100 | – | – | COc1cc(-c2cc(N3CCC4(CCCN4)CC3)n3ncnc(N)c23)ccc1NC(=O)OC(C)(C)C [Example 23, tert-butyl (4-(4-amino-7-(1,8-diazaspiro[4.5]decan-8-yl)pyrrolo[2,1-f][1,2,4]triazin-5-yl)-2-methoxyphenyl)carbamate] | – |
| 71 | 90 | ≤ 100 | – | – | CNC1CCN(CCc2cc(-c3ccc(NC(=O)OC(C)(C)C)c(OC)c3)c3c(N)ncnn23)CC1 [Example 99, tert-butyl (4-(4-amino-7-(2-(4-(methylamino)piperidin-1-yl)ethyl)pyrrolo[2,1-f][1,2,4]triazin-5-yl)-2-methoxyphenyl)carbamate] | – |
| 52 | – | ≤ 100 | ≤ 100 | 38 | CNCCC1CCN(c2cc(-c3ccc(NC(=O)OC(C)(C)C)c(OC)c3)c3c(N)ncnn23)CC1 [Example 108, tert-butyl (4-(4-amino-7-(4-(2-(methylamino)ethyl)piperidin-1-yl)pyrrolo[2,1-f][1,2,4]triazin-5-yl)-2-methoxyphenyl)carbamate] | – |
| 57 | 89 | ≤ 100 | – | – | COc1cc(-c2cc(N3CC4(CCN(C)C4)C3)n3ncnc(N)c23)ccc1NC(=O)OC(C)(C)C [Example 39, tert-butyl (4-(4-amino-7-(6-methyl-2,6-diazaspiro[3.4]octan-2-yl)pyrrolo[2,1-f][1,2,4]triazin-5-yl)-2-methoxyphenyl)carbamate] | – |
